This passage reports IC50, inhibition and Activity results from ChEMBL document CHEMBL6083265, “Design, synthesis and biological evaluation of 4,6-diarylquinoxaline-based KDM4D inhibitors” (Bioorg Med Chem, 2024).

Calls of active or inactive are those of the source. The calls are words filed in the database; no cut-off is given here.

One may read the IC50 as the concentration needed to halve the response being measured. Higher therefore signals weaker potency in that assay.

The target in assay [1] is T1, Lysine-specific demethylase 4D (Homo sapiens, UniProt Q6B0I6).
T1 sequence (Q6B0I6 whole entry): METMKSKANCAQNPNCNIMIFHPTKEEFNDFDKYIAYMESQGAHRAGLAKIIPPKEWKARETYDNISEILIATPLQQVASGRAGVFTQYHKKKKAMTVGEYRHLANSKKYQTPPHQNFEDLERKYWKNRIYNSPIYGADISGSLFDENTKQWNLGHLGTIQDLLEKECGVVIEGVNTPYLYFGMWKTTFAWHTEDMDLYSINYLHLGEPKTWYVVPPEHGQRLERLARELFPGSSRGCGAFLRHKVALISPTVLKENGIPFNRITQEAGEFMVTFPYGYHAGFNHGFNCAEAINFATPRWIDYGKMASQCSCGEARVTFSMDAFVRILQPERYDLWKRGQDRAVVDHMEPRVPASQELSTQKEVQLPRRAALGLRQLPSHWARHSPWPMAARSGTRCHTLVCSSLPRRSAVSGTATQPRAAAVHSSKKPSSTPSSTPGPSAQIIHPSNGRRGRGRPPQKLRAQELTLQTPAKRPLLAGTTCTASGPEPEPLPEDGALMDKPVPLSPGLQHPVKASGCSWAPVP
Nature of the assay: Inhibition of KDM4D (unknown origin) incubated for 60 mins by microplate reader analysis.

The test system of assay [2] is Huh-7. The assay is described as follows: cells. The following applies: Homo sapiens, Huh-7, 48 h, read-out: INH.
Description: Anticancer activity against human Huh-7 cells assessed as inhibition of cell viability at 8 uM incubated for 48 hrs by CCK-8 assay (Rvb = 0 +/- 0.88 %)
Assay [3] relates to Huh-7. The following applies: Homo sapiens, Huh-7, 48 h.
In assay [4] the test system is Huh-7. The assay is described as follows: Downregulation of c-Myc expression in human Huh-7 cells by Western blot analysis. It counts as functional, cell-based. For orientation: Immunoblotting shows a protein as a band on a membrane.
Assay [5] concerns Huh-7. The assay is described as follows: Downregulation of CyclinD1 expression in human Huh-7 cells by Western blot analysis. The assay is classed as functional, cell-based.
The subject of assay [6] is Huh-7. Nature of the assay: Inhibition of colony formation in human Huh-7 cells at 2 uM incubated for 72 hrs followed by compound washout and measured after 10 days by crystal violet staining based assay. The assay is classed as functional, cell-based.
The subject of assay [7] is Huh-7. The assay is described as follows: Induction of cell cycle arrest in human Huh-7 cells assessed as increase in accumulation of cells at G1 phase at 2 uM by flow cytometry analysis. It counts as functional, cell-based.
The subject of assay [8] is Huh-7. Nature of the assay: Induction of cell cycle arrest in human Huh-7 cells assessed as decrease in accumulation of cells at S phase at 2 uM by flow cytometry analysis. The assay is classed as functional, cell-based. (A flow cytometer gives signals particle by particle.)
Assay [9] deals with Huh-7. Nature of the assay: Induction of cell cycle arrest in human Huh-7 cells assessed as decrease in accumulation of cells at G2/M phase at 2 uM by flow cytometry analysis. It counts as functional, cell-based.
For assay [10], the system named is Huh-7. Nature of the assay: Inhibition of cell migration in human Huh-7 cells at 2 uM measured for 24 hrs by wound healing assay. It counts as functional, cell-based.

In [1], `Fc1ccc(CNC(=S)Nc2ccc3nc(-c4ccc(Br)s4)c(-c4ccc(Br)s4)nc3c2)cc1` showed an IC50 greater than 50 µM. Also, the inhibition at 8 µM in [2] was determined as 28.5%.
The corresponding values for `COC(=O)CCCNC(=S)Nc1ccc2nc(-c3ccco3)c(-c3ccco3)nc2c1` are 2.41 µM and 20.2%.
For `S=C(Nc1ccc2nc(-c3ccccn3)c(-c3ccccn3)nc2c1)N1CCCCCC1` the same measures were greater than 50 µM and 39.1%.
For `O=C1CCCN(C(=S)Nc2ccc3nc(-c4ccco4)c(-c4ccco4)nc3c2)CC1` the same measures were 3.97 µM and 29.5%.
Compound `S=C(Nc1ccc2nc(-c3ccc(Br)s3)c(-c3ccc(Br)s3)nc2c1)N1CCCCCC1` gave an IC50 in assay [1] greater than 50 µM. For the same compound, in [2], the inhibition at 8 µM came out at 41.5%.
The corresponding values for `S=C(NCc1ccccn1)Nc1ccc2nc(-c3ccccn3)c(-c3ccccn3)nc2c1` are greater than 50 µM and 30.3%.
For `COc1ccc(CNC(=S)Nc2ccc3nc(-c4ccco4)c(-c4ccco4)nc3c2)cc1` the same measures were 3.12 µM and 32.9%.
Take `O=[N+]([O-])c1ccc(CNC(=S)Nc2ccc3nc(-c4ccco4)c(-c4ccco4)nc3c2)cc1`: the concentration for half-maximal inhibition (IC50) in assay [1] stood at 3.66 µM. Moreover, the inhibition at 8 µM in [2] came out at 19.4%.
Consider `S=C(NCc1ccccn1)Nc1ccc2nc(-c3ccc(Br)o3)c(-c3ccc(Br)o3)nc2c1`, for which the IC50 in [1] worked out at 13 µM. Moreover, in [2], the inhibition at 8 µM is 38.1%.
For `S=C(NCc1ccncc1)Nc1ccc2nc(-c3ccccn3)c(-c3ccccn3)nc2c1` the same measures were greater than 50 µM and 39.8%.
For `S=C(Nc1ccc2nc(-c3ccco3)c(-c3ccco3)nc2c1)N1CCCCCC1` the same measures were 2.31 µM and 33.3%.
For `O=C(Nc1ccccc1)Nc1ccc2nc(-c3ccco3)c(-c3ccco3)nc2c1` the same measures were 3.7 µM and 24.2%.
On to `S=C(Nc1ccc2nc(-c3ccco3)c(-c3ccco3)nc2c1)N1CCOCC1`, for which the IC50 in assay [1] turned out to be 3.8 µM. Further, the inhibition at 8 µM in assay [2] came to 30%.
For `CCCCNC(=S)Nc1ccc2nc(-c3ccco3)c(-c3ccco3)nc2c1` the same measures were 2.63 µM and 30.7%.
The corresponding values for `S=C(Nc1ccc2nc(-c3ccco3)c(-c3ccco3)nc2c1)c1ccccc1` are 25.6 µM and 33.8%.
The corresponding values for `Fc1ccc(CNC(=S)Nc2ccc3nc(-c4ccccn4)c(-c4ccccn4)nc3c2)cc1` are greater than 50 µM and 37.8%.
`Cc1ccc(-c2nc3ccc(NC(=S)N4CCCCCC4)cc3nc2-c2ccc(C)o2)o1`: the values for the IC50 in assay [1] and in assay [3] were 0.62 µM and 5.23 µM, respectively. For the same compound, the outcome in assay [4], in assay [5], in [7], in assay [8] and in [9] was Active. The inhibition result in [6] and in assay [10] was “Active” in each case. Also, the inhibition at 8 µM in [2] stood at 55.5%.
For `S=C(Nc1ccccc1)Nc1ccc2nc(-c3ccco3)c(-c3ccco3)nc2c1`, in [1], it took 4.81 µM to reach half-maximal inhibition (IC50). In assay [2], the inhibition at 8 µM turned out to be 25.6%.
On to `S=C(Nc1ccc2nc(-c3ccc(Br)o3)c(-c3ccc(Br)o3)nc2c1)N1CCCCCC1`, for which, in assay [1], the IC50 was determined as 5.98 µM. The inhibition at 8 µM in assay [2] is 25.8%.
For `S=C(Nc1ccc2nc(-c3ccco3)c(-c3ccco3)nc2c1)Nc1ccccn1` the same measures were 2.46 µM and 16%.
The corresponding values for `O=C(Nc1ccc2nc(-c3ccco3)c(-c3ccco3)nc2c1)N1CCCCCC1` are 2.95 µM and 32.8%.
For `O=C(Nc1ccccc1)C(=S)Nc1ccc2nc(-c3ccco3)c(-c3ccco3)nc2c1` the same measures were 7.16 µM and 19.7%.
The compound `Fc1ccc(CNC(=S)Nc2ccc3nc(-c4cccs4)c(-c4cccs4)nc3c2)cc1` came in with an IC50 in [1] greater than 50 µM. In [2], the inhibition at 8 µM stood at 41.8%.
The corresponding values for `Fc1ccc(CNC(=S)Nc2ccc3nc(-c4ccco4)c(-c4ccco4)nc3c2)cc1` are 3.23 µM and 33%.
